Source: the kinase profiling compilation of Christmann-Franck et al. (2016)

Experiments:
Assay in all cases: KINOMEscan competition binding
Conditions in all cases: compound 10.0 µM
[1] = target: PRPF4B (human) (UniProt Q13523)
[2] = target: PKMYT1 (human) (UniProt Q99640)
[3] = target: EPHB2 (human) (UniProt P29323)
[4] = target: MAST1 (human) (UniProt Q9Y2H9)
[5] = target: CSNK2A2 (human) (UniProt P19784)
[6] = target: CSNK1G1 (human) (UniProt Q9HCP0)
[7] = target: FGFR4 (human) (UniProt P22455)
[8] = target: STK3 (human) (UniProt Q13188)
[9] = target: YSK4 (human) (UniProt Q56UN5)
[10] = target: RET (human) (UniProt P07949)
[11] = target: MTOR (human) (UniProt P42345)
[12] = target: EPHB4 (human) (UniProt P54760)
[13] = target: CDK17 (human) (UniProt Q00537)
[14] = target: CAMK2B (human) (UniProt Q13554)
[15] = target: ANKK1 (human) (UniProt Q8NFD2)
[16] = target: MAP3K11 (human) (UniProt Q16584)
[17] = target: MAP2K4 (human) (UniProt P45985)
[18] = target: MKNK2 (human) (UniProt Q9HBH9)
[19] = target: MAP3K6 (human) (UniProt O95382)
[20] = target: CAMKK2 (human) (UniProt Q96RR4)
[21] = target: MERTK (human) (UniProt Q12866)
[22] = test system: CPK1 (P.falciparum)
[23] = target: AKT1 (human) (UniProt P31749)
[24] = target: RPS6KA6 KD1 (human) (UniProt Q9UK32)
[25] = target: EPHA4 (human) (UniProt P54764)
[26] = target: DDR2 (human) (UniProt Q16832)
[27] = target: PIK3C2B (human) (UniProt O00750)
[28] = target: MAPK13 (human) (UniProt O15264)
[29] = target: STK36 (human) (UniProt Q9NRP7)
[30] = target: DAPK1 (human) (UniProt P53355)
[31] = target: CLK4 (human) (UniProt Q9HAZ1)
[32] = target: CDKL2 (human) (UniProt Q92772)
[33] = target: MAP2K7 (human) (UniProt O14733)
[34] = target: PRKACA (human) (UniProt P17612)
[35] = target: PRKCH (human) (UniProt P24723)
[36] = target: ADCK3 (human) (UniProt Q8NI60)
[37] = target: EPHA3 (human) (UniProt P29320)
[38] = target: NEK7 (human) (UniProt Q8TDX7)
[39] = target: SYK (human) (UniProt P43405)
[40] = target: CASK (human) (UniProt O14936)
Sequence of CASK (human) (O14936 whole entry, looked up): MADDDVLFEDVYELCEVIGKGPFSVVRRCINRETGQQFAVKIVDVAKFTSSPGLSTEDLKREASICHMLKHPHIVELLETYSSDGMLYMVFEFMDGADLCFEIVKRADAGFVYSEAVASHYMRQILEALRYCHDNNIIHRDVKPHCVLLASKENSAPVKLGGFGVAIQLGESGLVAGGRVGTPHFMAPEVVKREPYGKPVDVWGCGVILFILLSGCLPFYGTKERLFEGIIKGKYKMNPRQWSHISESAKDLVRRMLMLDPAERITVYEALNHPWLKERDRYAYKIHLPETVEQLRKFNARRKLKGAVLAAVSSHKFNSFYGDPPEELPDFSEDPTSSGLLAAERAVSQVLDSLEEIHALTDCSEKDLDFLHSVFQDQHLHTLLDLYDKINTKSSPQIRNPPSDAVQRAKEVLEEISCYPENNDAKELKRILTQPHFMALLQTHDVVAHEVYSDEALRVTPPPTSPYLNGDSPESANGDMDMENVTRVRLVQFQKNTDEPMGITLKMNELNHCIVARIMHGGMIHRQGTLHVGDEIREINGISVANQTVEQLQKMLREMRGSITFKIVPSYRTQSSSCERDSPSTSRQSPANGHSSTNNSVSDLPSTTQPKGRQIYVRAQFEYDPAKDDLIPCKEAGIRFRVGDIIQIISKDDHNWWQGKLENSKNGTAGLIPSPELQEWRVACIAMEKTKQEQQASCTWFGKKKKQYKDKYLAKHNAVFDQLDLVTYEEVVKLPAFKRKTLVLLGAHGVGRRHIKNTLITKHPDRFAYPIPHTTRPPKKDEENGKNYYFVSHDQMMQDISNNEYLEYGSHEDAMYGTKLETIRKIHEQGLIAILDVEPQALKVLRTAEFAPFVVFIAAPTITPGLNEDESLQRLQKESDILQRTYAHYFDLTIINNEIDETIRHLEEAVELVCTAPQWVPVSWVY

Sequence of MERTK (human) (Q12866 whole entry, looked up): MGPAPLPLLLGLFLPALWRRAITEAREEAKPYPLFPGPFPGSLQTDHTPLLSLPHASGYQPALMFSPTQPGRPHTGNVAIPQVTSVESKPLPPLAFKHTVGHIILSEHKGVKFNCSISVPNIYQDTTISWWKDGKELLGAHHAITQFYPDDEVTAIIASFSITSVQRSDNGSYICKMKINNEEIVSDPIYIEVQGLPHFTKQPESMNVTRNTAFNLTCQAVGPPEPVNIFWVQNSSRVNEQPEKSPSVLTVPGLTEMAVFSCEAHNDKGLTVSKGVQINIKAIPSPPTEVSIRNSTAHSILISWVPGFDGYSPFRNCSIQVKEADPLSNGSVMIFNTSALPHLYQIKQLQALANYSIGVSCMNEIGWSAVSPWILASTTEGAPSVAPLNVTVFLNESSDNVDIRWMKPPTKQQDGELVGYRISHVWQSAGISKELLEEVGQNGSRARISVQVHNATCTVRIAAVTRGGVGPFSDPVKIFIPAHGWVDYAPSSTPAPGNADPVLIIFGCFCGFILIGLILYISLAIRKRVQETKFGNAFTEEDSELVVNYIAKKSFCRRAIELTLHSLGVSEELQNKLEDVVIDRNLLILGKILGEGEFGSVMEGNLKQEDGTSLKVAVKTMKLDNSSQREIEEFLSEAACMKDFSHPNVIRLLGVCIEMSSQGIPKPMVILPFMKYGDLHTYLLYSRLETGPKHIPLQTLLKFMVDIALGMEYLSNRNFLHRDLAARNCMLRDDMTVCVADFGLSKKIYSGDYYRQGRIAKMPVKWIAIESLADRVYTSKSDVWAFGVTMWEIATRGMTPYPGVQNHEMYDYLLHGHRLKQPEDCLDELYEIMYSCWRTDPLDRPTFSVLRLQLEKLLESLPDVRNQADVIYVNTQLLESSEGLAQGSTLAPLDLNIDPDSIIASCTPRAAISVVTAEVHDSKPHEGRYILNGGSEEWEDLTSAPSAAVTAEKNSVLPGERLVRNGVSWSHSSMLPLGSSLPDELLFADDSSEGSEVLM
Sequence of EPHA4 (human) (P54764 whole entry, looked up): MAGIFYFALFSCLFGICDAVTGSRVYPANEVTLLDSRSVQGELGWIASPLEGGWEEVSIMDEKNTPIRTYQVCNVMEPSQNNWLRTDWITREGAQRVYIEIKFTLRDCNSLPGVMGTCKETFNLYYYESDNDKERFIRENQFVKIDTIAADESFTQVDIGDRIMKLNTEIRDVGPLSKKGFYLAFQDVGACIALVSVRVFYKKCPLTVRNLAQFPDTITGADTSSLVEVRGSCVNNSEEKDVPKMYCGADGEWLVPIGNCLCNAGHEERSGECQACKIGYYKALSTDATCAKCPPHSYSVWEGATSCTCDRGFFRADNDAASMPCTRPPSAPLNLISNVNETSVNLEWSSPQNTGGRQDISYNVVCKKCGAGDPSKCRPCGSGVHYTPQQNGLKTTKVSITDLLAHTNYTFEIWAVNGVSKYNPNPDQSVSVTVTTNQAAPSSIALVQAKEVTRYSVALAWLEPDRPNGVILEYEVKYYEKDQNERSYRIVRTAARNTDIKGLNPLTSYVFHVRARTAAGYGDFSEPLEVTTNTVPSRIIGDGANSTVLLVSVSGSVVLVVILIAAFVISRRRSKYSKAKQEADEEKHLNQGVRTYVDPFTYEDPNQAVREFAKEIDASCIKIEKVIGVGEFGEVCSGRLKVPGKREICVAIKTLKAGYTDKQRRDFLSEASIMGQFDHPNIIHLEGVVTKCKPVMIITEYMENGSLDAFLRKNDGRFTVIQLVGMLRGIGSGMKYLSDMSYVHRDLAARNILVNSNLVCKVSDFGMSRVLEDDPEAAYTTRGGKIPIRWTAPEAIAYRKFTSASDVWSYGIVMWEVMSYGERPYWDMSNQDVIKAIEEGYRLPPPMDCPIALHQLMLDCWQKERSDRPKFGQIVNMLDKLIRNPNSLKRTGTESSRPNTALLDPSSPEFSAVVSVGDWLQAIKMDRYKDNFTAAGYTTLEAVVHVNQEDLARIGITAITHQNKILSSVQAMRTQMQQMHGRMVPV
Sequence of CDKL2 (human) (Q92772 whole entry, looked up): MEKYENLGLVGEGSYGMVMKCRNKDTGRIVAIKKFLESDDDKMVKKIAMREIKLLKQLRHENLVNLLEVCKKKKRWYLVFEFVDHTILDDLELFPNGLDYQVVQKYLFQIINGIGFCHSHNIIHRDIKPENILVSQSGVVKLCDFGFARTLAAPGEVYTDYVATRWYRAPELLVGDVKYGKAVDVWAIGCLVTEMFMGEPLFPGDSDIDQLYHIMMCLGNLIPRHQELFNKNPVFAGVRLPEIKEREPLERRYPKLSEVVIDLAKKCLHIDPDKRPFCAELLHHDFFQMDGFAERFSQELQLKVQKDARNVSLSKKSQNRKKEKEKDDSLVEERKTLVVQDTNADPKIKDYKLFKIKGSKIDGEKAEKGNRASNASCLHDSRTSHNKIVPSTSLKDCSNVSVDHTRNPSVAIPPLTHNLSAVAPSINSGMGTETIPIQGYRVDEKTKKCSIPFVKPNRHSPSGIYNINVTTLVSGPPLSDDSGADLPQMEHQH
Sequence of CAMK2B (human) (Q13554 whole entry, looked up): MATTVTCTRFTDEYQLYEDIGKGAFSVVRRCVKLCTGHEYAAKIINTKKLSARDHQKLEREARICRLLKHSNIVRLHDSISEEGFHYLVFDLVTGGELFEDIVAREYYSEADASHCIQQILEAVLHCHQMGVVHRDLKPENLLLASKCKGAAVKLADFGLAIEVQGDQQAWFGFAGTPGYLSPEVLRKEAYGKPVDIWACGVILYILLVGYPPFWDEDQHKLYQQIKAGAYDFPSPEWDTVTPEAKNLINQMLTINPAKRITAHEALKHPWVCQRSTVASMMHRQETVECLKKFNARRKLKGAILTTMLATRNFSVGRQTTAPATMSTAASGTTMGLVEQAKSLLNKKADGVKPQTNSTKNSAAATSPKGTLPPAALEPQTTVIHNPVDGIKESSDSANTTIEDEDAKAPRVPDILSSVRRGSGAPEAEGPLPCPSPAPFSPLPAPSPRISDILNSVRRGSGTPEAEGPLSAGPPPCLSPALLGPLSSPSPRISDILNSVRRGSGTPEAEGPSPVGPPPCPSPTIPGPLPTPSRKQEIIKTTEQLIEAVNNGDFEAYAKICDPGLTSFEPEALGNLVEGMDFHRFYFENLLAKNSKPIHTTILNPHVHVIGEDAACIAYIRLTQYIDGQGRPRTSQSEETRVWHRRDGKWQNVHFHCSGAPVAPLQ
Sequence of PKMYT1 (human) (Q99640 whole entry, looked up): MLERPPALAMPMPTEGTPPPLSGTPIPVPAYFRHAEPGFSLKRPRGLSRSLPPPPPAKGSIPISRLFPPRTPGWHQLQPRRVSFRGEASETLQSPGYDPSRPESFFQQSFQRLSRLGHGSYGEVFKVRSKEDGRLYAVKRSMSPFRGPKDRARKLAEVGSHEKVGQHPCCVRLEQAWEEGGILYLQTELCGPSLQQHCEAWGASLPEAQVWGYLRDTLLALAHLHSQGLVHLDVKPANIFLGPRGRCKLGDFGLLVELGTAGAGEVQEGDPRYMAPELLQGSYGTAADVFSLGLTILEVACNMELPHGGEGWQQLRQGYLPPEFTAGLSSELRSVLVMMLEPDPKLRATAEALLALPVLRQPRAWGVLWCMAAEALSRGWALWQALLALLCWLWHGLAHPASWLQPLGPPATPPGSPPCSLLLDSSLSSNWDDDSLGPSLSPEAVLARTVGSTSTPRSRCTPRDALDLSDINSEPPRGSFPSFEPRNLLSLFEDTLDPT
Sequence of MAPK13 (human) (O15264 whole entry, looked up): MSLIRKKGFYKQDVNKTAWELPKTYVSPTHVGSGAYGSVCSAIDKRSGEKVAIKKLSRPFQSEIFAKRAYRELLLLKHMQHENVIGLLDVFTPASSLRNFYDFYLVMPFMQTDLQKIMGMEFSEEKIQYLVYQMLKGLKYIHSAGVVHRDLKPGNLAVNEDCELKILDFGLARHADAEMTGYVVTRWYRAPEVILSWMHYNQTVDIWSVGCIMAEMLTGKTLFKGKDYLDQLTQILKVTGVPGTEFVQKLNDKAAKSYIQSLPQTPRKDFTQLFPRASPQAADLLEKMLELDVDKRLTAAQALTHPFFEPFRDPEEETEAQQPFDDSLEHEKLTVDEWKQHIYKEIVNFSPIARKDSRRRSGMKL

Structure (SMILES) | kinase still bound, per cent of control [1] [%] | kinase still bound, per cent of control [2] [%] | kinase still bound, per cent of control [3] [%] | kinase still bound, per cent of control [4] [%] | kinase still bound, per cent of control [5] [%] | kinase still bound, per cent of control [6] [%] | kinase still bound, per cent of control [7] [%] | kinase still bound, per cent of control [8] [%] | kinase still bound, per cent of control [9] [%] | kinase still bound, per cent of control [10] [%] | kinase still bound, per cent of control [11] [%] | kinase still bound, per cent of control [12] [%] | kinase still bound, per cent of control [13] [%] | kinase still bound, per cent of control [14] [%] | kinase still bound, per cent of control [15] [%] | kinase still bound, per cent of control [16] [%] | kinase still bound, per cent of control [17] [%] | kinase still bound, per cent of control [18] [%] | kinase still bound, per cent of control [19] [%] | kinase still bound, per cent of control [20] [%] | other results
O=C1Nc2ccc(I)cc2/C1=C/c1cc(Br)c(O)c(Br)c1 | 50 | 79 | 100 | 100 | 3.2 | 69 | 100 | 3.3 | 0.4 | 100 | 95 | 100 | 87 | 17 | 12 | 38 | 3.4 | 89 | 100 | 9 | kinase still bound, per cent of control [21]: 100%; kinase still bound, per cent of control [22]: 24%; kinase still bound, per cent of control [23]: 100%; kinase still bound, per cent of control [24]: 51%; kinase still bound, per cent of control [25]: 100%; kinase still bound, per cent of control [26]: 73%; kinase still bound, per cent of control [27]: 10%; kinase still bound, per cent of control [28]: 100%; kinase still bound, per cent of control [29]: 14%; kinase still bound, per cent of control [30]: 6.2%; kinase still bound, per cent of control [31]: 36%; kinase still bound, per cent of control [32]: 82%; kinase still bound, per cent of control [33]: 98%; kinase still bound, per cent of control [34]: 100%; kinase still bound, per cent of control [35]: 100%; kinase still bound, per cent of control [36]: 100%; kinase still bound, per cent of control [37]: 66%; kinase still bound, per cent of control [38]: 100%; kinase still bound, per cent of control [39]: 78%; kinase still bound, per cent of control [40]: 74%
C=CC(=O)Nc1cc(NC(=O)c2ccc(C)c(NC(=O)c3ccno3)c2)cc(C(F)(F)F)c1 | 100 | 83 | 77 | 100 | 81 | 100 | 100 | 100 | 74 | 96 | 97 | 87 | 92 | 100 | 99 | 100 | 100 | 100 | 83 | 69 | kinase still bound, per cent of control [21]: 99%; kinase still bound, per cent of control [22]: 94%; kinase still bound, per cent of control [23]: 58%; kinase still bound, per cent of control [24]: 86%; kinase still bound, per cent of control [25]: 48%; kinase still bound, per cent of control [26]: 40%; kinase still bound, per cent of control [27]: 100%; kinase still bound, per cent of control [28]: 90%; kinase still bound, per cent of control [29]: 100%; kinase still bound, per cent of control [30]: 80%; kinase still bound, per cent of control [31]: 100%; kinase still bound, per cent of control [32]: 100%; kinase still bound, per cent of control [33]: 100%; kinase still bound, per cent of control [34]: 100%; kinase still bound, per cent of control [35]: 100%; kinase still bound, per cent of control [36]: 100%; kinase still bound, per cent of control [37]: 9.8%; kinase still bound, per cent of control [38]: 100%; kinase still bound, per cent of control [39]: 100%; kinase still bound, per cent of control [40]: 83%
